Type in all cases: binding
Assay [1] has as its target T1, EcNFeoB (GTPase domain of Escherichia coli FeoB) (Escherichia coli, UniProt P33650, T151A).
T1 construct: soluble N-terminal GTPase domain, residues 1-270; GST fusion (pGEX-4T-1) in E. coli BL21(DE3), GST removed by thrombin, size exclusion; an alternate S150A-TEV construct (TEV-cleaved) was also made
T1 sequence (P33650 1-270 T151A): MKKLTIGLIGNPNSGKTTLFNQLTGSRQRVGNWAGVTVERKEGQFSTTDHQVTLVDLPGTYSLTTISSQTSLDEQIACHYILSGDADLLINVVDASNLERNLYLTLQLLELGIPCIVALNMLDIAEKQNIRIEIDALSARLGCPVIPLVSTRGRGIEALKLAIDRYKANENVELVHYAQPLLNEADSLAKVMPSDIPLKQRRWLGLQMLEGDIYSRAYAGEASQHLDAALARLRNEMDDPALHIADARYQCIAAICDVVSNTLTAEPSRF
The assay is described as follows: isothermal titration calorimetry, one-site model. The settings on record: read-out: Kd^** (μM) GDP. The source says: (§1) isothermal titration calorimetry, one-site model on EcNFeoB (GTPase domain of Escherichia coli FeoB)
(In general: ITC needs no label: the signal is the heat of the interaction.)

The target of assay [2] is T2, EcNFeoB (GTPase domain of Escherichia coli FeoB) (Escherichia coli, UniProt P33650, S150A).
T2 construct: soluble N-terminal GTPase domain, residues 1-270; GST fusion (pGEX-4T-1) in E. coli BL21(DE3), GST removed by thrombin, size exclusion; an alternate S150A-TEV construct (TEV-cleaved) was also made
T2 sequence (P33650 1-270 S150A): T1 sequence (P33650 1-270 T151A)
The assay is described as follows: isothermal titration calorimetry, one-site model. The settings on record: read-out: Kd^** (μM) GDP.
Text: as §1

The target in assay [3] is T3, EcNFeoB (GTPase domain of Escherichia coli FeoB) (Escherichia coli, UniProt P33650, G153A).
T3 construct: soluble N-terminal GTPase domain, residues 1-270; GST fusion (pGEX-4T-1) in E. coli BL21(DE3), GST removed by thrombin, size exclusion; an alternate S150A-TEV construct (TEV-cleaved) was also made
T3 sequence (P33650 1-270 G153A): T1 sequence (P33650 1-270 T151A)
The assay is described as follows: isothermal titration calorimetry, one-site model. Particulars: read-out: Kd^** (μM) GDP.
Text: as §1

The target in assay [4] is T4, EcNFeoB (GTPase domain of Escherichia coli FeoB) (Escherichia coli, UniProt P33650, R154A).
T4 construct: soluble N-terminal GTPase domain, residues 1-270; GST fusion (pGEX-4T-1) in E. coli BL21(DE3), GST removed by thrombin, size exclusion; an alternate S150A-TEV construct (TEV-cleaved) was also made
T4 sequence (P33650 1-270 R154A): T1 sequence (P33650 1-270 T151A)
The experiment in a line: isothermal titration calorimetry, one-site model. The settings on record: read-out: Kd^** (μM) GDP.
Text: as §1

Assay [5] addresses T5, EcNFeoB (GTPase domain of Escherichia coli FeoB) (Escherichia coli, UniProt P33650, R152A).
T5 construct: soluble N-terminal GTPase domain, residues 1-270; GST fusion (pGEX-4T-1) in E. coli BL21(DE3), GST removed by thrombin, size exclusion; an alternate S150A-TEV construct (TEV-cleaved) was also made
T5 sequence (P33650 1-270 R152A): T1 sequence (P33650 1-270 T151A)
The experiment in a line: isothermal titration calorimetry, one-site model. Particulars: read-out: Kd^** (μM) GDP.
Text: as §1

In assay [6] the target is T1, EcNFeoB (GTPase domain of Escherichia coli FeoB). The experiment in a line: stopped-flow fluorescence, koff/kon from kobs versus protein concentration. The settings on record: 20 mM Tris pH 8.0, 100 mM NaCl, 100 mM MgCl2, 20 °C; labelled compound (mant-GMPPNP; table heading prints GMPPNP). From the text: (§2) stopped-flow fluorescence, koff/kon from kobs versus protein concentration on EcNFeoB (GTPase domain of Escherichia coli FeoB)

Assay [7] concerns the target T3, EcNFeoB (GTPase domain of Escherichia coli FeoB). The assay is described as above. The settings on record: 20 mM Tris pH 8.0, 100 mM NaCl, 100 mM MgCl2, 20 °C; labelled compound (mant-GMPPNP; table heading prints GMPPNP).
Text: as §2

Assay [8] has as its target T4, EcNFeoB (GTPase domain of Escherichia coli FeoB). Described as above. Particulars: 20 mM Tris pH 8.0, 100 mM NaCl, 100 mM MgCl2, 20 °C; labelled compound (mant-GMPPNP; table heading prints GMPPNP).
Text: as §2

In assay [9] the target is T5, EcNFeoB (GTPase domain of Escherichia coli FeoB). The description is as above. Particulars: 20 mM Tris pH 8.0, 100 mM NaCl, 100 mM MgCl2, 20 °C; labelled compound (mant-GMPPNP; table heading prints GMPPNP).
Text: as §2

Usually Kd stands for the equilibrium constant for the complex coming apart. Take `Nc1nc2c(ncn2[C@@H]2O[C@H](COP(=O)(O)OP(=O)(O)O)[C@@H](O)[C@H]2O)c(=O)[nH]1` [GDP]: the Kd was 33 ± 4 µM in assay [1]; 2 ± 0.3 µM in assay [2]; 11 ± 2 µM in assay [3]; 9 ± 2 µM in assay [4]; 8 ± 1 µM in assay [5].

In the case of mant-GMPPNP, the dissociation constant (Kd) came out at 27 µM in assay [6], 17 µM in assay [7], 43 µM in assay [8] and 23 µM in [9].

The record behind these values is paper PMC4266920, “Exploring the correlation between the sequence composition of the nucleotide binding G5 loop of the FeoB GTPase domain (NFeoB) and intrinsic rate of GDP release” (Bioscience Reports, 2014).
